From patent publication US11370796B2, “Substituted pyrazoles as LRRK2 inhibitors” (OSCOTEC INC., priority 2017, dated 2022)
Like-named read-outs stand apart in the source and are kept apart here.

Target: LRRK2 (leucine-rich repeat kinase 2) (Homo sapiens (Human), UniProt Q5S007)
Assay: Inhibitory effect on LRRK2 in vitro (LANCE kinase assay)
Type: biochemical
Method: The inhibitory effect of Compounds 1 to 62 on LRRK2 (leucine-rich repeat kinase 2) in vitro was measured. In the analysis of the results, IC50 values were calculated for a quantitative comparison of the in vitro activity.
After the compound was dissolved in 100% DMSO at 10 mM, it was serially diluted to the range of 1 μM to 10 μM using biochemical LRRK2 assay buffer (50 mM HEPES (4-(2-hydroxyethyl)-1-piperazineethanesulfonic acid) pH 7.5, 10 mM MgCl2, 1 mM EGTA (1,2-bis(o-aminophenoxy)ethane-N,N,N′,N′-tetraacetic acid), 2 mM DTT (dithiothreitol), and 0.01% TWEEN-20 (Aldrich)). Purified LRRK2 (CARNA BIOSCIENCES) was added to a black U-bottom 96-well microtiter plate containing 6 μl of the serially diluted compound, followed by incubation at room temperature for 30 minutes. For the kinase reaction, ATP and a substrate solution specific urea-polypeptide (ULIGHT™-poly TK, PerkinElimer) were added. The reaction was carried out at room temperature for 1 hour, and it was detected with an detection solution (brand name: LANCE™) containing EDTA. A LANCE detection solution containing europium-labeled antibody ([…] PT66) was added, followed by incubation at room temperature for 50 minutes, to terminate the kinase experiment. The phosphorylated substrate was detected by 665 nm emission measurement. IC50 values were calculated by a non-linear regression analysis using a Prism program (PRISM™ software) with reference to the absence of a kinase inhibitor.
As a comparative assay, a compound LRR2-IN-1, that known to be a reference compound for LRRK2 inhibitor, have also tested an inhibitory activity.

[1] = Table 1, class symbols, read-out: LRRK2 inhibition rate (IC50)

LRRK2 (leucine-rich repeat kinase 2), sequence (Q5S007 whole entry): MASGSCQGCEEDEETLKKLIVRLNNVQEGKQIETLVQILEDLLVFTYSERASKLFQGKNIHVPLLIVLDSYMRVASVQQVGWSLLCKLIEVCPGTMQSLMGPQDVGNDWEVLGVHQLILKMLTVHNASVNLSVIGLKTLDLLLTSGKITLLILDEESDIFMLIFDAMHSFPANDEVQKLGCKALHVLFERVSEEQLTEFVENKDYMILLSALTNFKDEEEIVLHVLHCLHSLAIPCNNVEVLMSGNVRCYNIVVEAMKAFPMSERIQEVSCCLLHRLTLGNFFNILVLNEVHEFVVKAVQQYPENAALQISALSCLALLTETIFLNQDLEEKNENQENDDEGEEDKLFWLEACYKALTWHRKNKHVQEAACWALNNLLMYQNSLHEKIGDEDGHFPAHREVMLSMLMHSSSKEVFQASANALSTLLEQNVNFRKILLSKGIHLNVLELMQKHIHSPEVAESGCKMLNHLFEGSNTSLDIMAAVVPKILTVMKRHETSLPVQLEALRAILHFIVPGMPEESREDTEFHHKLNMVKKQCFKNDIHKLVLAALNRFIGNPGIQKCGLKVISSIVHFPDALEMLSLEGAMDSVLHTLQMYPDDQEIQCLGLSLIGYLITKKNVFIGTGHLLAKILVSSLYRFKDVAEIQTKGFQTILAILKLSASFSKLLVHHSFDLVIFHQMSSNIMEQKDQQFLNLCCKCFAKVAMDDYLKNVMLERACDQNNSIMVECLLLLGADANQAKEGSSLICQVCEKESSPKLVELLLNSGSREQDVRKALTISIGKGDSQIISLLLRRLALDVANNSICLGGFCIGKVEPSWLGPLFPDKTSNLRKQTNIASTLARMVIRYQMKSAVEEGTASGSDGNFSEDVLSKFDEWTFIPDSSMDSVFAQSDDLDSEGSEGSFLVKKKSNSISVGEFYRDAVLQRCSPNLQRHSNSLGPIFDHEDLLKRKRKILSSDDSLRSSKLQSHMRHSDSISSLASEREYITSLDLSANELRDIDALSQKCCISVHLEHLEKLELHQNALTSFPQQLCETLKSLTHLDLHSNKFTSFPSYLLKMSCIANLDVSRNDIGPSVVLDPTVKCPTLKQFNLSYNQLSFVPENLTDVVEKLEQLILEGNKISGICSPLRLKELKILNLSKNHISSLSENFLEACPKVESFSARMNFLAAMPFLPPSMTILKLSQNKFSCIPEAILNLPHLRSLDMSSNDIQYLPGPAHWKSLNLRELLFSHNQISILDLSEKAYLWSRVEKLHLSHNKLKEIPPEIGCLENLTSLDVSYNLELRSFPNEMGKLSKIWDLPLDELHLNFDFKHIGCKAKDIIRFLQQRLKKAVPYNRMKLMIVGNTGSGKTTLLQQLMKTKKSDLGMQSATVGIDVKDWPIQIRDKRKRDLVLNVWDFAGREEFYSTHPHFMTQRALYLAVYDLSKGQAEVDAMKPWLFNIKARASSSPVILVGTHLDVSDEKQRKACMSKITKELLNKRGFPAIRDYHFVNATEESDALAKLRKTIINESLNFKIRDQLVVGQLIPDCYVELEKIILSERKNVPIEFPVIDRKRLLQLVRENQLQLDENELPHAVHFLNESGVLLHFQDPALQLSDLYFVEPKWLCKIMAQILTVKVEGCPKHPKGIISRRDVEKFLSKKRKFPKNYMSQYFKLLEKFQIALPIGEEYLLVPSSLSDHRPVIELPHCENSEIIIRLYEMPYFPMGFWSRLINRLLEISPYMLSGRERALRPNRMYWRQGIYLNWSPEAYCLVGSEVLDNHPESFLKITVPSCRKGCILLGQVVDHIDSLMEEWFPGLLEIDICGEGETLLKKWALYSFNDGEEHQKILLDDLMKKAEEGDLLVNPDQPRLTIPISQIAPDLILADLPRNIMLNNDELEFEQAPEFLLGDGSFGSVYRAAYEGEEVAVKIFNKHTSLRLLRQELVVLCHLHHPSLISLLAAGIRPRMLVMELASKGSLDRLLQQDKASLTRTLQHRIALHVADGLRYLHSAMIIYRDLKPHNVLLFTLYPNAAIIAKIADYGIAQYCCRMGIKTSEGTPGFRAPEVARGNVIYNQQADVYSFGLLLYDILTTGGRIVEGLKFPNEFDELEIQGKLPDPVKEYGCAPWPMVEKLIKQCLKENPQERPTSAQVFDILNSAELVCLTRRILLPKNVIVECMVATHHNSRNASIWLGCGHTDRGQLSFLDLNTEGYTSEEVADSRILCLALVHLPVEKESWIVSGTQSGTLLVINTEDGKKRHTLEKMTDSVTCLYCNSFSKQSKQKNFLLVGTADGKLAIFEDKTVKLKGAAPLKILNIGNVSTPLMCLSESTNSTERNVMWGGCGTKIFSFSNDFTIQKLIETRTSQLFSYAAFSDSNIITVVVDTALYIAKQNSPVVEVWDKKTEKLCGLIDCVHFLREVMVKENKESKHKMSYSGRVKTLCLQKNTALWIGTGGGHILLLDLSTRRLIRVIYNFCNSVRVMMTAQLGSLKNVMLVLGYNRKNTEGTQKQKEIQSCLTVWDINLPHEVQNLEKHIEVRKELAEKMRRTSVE

An IC50 [1] of 10 to 100 nM was found for CCn1nc(Cl)c2cnc(Nc3cnn(C4CN(C5COC5)C4)c3Cl)nc21 [Compound 61, 3-chloro-N-(5-chloro-1-(1-(oxetan-3-yl)azetidin-3-yl)-1H-pyrazol-4-yl)-1-ethyl-1H-pyrazolo[3,4-d]pyrimidin-6-amine] in this work.

An IC50 [1] of 10 to 100 nM was found for CCn1nc(Cl)c2cnc(Nc3cnn(C4CCN(S(C)(=O)=O)CC4)c3Cl)nc21 [Compound 62, 3-chloro-N-(5-chloro-1-(1-(methylsulfonyl)piperidin-4-yl)-1H-pyrazol-4-yl)-1-ethyl-1H-pyrazolo[3,4-d]pyrimidin-6-amine] in this work.

An IC50 (purified LRRK2, Table 6, read-out: IC50) of 8.2 nM was found for COc1cc(C(=O)N2CCC(N3CCN(C)CC3)CC2)ccc1Nc1ncc2c(n1)N(C)c1ccccc1C(=O)N2C [LRRK2-IN-1, reference compound] in this work.
